This assay deals with NR1/NR2B (Homo sapiens (Human), UniProt Q05586+Q13224). Put plainly: Cell assay: FDSS Ca2+ influx inhibition in HEK293 cells expressing NR1/NR2B.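 Also: Fluo-8 Ca2+ signal read on Hamamatsu FDSS 6000 after glutamate, glycine and Ca2+ challenge following 10 min compound preincubation, end/baseline fluorescence ratio compared with MK801 control.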 The note with it: Ca2+ influx.
The mark [1] stands for this setting: NR2B NAM IC50, HEK293 cells expressing NR1/NR2B.
[2] abbreviates: Binned Activity, HEK293 cells expressing NR1/NR2B, binned NR2B NAM IC50.

NR1/NR2B, sequence (Q13224 27-1484, other chains not shown): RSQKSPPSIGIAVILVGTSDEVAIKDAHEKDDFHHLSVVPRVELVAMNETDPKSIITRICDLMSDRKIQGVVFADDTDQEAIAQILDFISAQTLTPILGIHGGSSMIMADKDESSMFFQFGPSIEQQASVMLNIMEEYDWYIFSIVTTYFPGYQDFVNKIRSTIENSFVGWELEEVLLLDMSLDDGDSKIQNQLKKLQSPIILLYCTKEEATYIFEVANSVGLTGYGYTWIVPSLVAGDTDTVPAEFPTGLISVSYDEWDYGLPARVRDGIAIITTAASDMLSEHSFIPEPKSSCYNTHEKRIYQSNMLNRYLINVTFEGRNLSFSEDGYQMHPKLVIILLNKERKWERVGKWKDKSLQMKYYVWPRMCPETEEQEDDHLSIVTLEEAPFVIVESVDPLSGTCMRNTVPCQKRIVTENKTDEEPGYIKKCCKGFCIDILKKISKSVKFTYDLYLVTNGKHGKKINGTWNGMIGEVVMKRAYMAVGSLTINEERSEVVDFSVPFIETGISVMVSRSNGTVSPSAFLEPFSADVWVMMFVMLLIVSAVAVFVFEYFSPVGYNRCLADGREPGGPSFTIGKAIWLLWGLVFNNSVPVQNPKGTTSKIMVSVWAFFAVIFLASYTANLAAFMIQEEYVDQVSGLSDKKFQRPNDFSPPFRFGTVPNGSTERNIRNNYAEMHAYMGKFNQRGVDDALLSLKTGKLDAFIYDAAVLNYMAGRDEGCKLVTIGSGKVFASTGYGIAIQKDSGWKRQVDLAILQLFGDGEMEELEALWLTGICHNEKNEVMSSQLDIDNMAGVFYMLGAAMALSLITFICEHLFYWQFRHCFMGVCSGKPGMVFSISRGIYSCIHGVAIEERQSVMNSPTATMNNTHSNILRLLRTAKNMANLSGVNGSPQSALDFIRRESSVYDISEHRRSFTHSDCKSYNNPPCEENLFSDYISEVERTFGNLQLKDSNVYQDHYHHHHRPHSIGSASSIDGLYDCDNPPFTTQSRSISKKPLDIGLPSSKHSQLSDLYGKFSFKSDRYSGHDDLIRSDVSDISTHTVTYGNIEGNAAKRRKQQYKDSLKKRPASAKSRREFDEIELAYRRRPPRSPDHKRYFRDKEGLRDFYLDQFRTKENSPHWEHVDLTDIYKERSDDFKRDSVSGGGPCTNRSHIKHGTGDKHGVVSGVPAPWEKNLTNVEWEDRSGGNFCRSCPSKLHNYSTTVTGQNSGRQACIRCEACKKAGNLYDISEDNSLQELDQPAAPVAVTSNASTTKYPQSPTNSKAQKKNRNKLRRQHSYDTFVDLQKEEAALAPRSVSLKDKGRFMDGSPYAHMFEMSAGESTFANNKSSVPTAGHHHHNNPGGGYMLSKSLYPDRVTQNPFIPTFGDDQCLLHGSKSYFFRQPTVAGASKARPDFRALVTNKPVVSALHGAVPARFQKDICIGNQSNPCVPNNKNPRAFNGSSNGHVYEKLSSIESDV

Take `Oc1ccc(C(O)CN2C[C@@H]3C[C@@](O)(Cc4ccccn4)C[C@@H]3C2)cc1` (mixture of isomers) [Example 232, rac-(3aR,5r,6aS)-2-(2-hydroxy-2-(4-hydroxyphenyl)ethyl)-5-(pyridin-2-ylmethyl)octahydrocyclo-penta[c]pyrrol-5-ol]: half-maximal inhibition under setting [1] (IC50) was put at 669 nM.

The molecule `CC(C(O)c1ccc(O)cc1)N1C[C@@H]2C[C@](F)(Cc3ccccc3)C[C@@H]2C1` (mixture of isomers) [Example 318, rac-4-(2-((3aR,5s,6aS)-5-benzyl-5-fluoro-hexahydrocyclopen-ta[c]pyrrol-2(1H)-yl)-1-hydroxypropyl)phenol] gave an IC50 under setting [1] of 12800 nM.

In the case of `COc1cccc(C[C@]2(O)C[C@H]3CN(CC(O)c4ccc(O)cn4)C[C@H]3C2)c1` (mixture of isomers) [Example 196, rac-((3aR,r,6aS)-2-(2-hydroxy-2-(5-hydroxypyridin-2-yl)ethyl)-5-(3-meth-oxybenzyl)octahydro-cyclopenta[c]pyrrol-5-ol], the IC50 under setting [1] stood at 66 nM. Take `OC(CN1C[C@@H]2C[C@@](O)(Cc3ccccc3)C[C@@H]2C1)c1ccc(Cl)cc1Cl` (mixture of isomers) [Example 287, rac-(3aR,5r,6aS)-5-benzyl-2-(2-(2,4-dichlorophenyl)-2-hydroxyethyl)octahydro-cyclopenta[c]pyrrol-5-ol]: the 50% inhibitory concentration (IC50) runs as follows: under setting [2], above 10000 nM; under setting [1], at least 10000 nM. Under setting [2], `CC(C)(O)c1ccc(C(=O)CN2C[C@@H]3C[C@@](O)(c4ccccc4)C[C@@H]3C2)cc1` [Example 68, 2-(5-hydroxy-5-phenylhexahydrocyclo-penta[c]pyrrol-2(1H)-yl)-2-(4-(2-hydroxypropan-2-yl)phenyl)ethanone] showed a concentration for half-maximal inhibition (IC50) above 10000 nM.

Regarding `COc1cccc([C@]2(O)C[C@H]3CN(C(=O)Nc4cccc(C(F)(F)F)c4)C[C@H]3C2)c1` [Example 16], the 50% inhibitory concentration (IC50) is above 10000 nM under setting [2] and at least 10000 nM under setting [1]. The like results for `Oc1ccc(C(O)CN2C[C@H]3CC(Cc4ccccc4)C[C@H]3C2)cc1` (mixture of isomers) [Example 300, rac-4-(2-((3aR,6aS)-5-benzylhexahydrocyclo-penta[c]pyrrol-2(1H)-yl)-1-hydroxyethyl) phenol] were, in that order, below 100 nM and 13.9 nM. Under setting [1], `CO[C@@]1(Cc2ccccc2)C[C@H]2CN(CC(O)c3ccc(O)c(F)c3)C[C@H]2C1` (mixture of isomers) [Example 175, rac-4-(2-((3aR,5r,6aS)-5-benzyl-5-methoxyhexahydrocyclo-penta[c]pyrrol-2(1H)-yl)-1-hydroxyethyl)-2-fluorophenol] came in with an IC50 of 32.4 nM. Consider `Oc1ccc(C(O)CN2C[C@@H]3C[C@](F)(Cc4ccccc4)C[C@@H]3C2)cc1` (mixture of isomers) [Example 311, rac-4-(2-((3aR,5s,6aS)-5-benzyl-5-fluorohexahydrocyclo-penta[c]pyrrol-2(1H)-yl)-1-hydroxyethyl) phenol], for which the IC50 was 100 to 1000 nM under setting [2] and 448 nM under setting [1]. `CO[C@@]1(Cc2ccccc2)C[C@H]2CN(CC(O)c3ccc(O)cc3)C[C@H]2C1` (mixture of isomers) [Example 176, rac-4-(2-((3aR,5r,6aS)-5-benzyl-5-methoxyhexahydrocyclo-penta[c]pyrrol-2(1H)-yl)-1-hydroxyethyl)phenol] registered a half-maximal inhibitory concentration (IC50) under setting [1] of 32.4 nM. Still for that read-out and setting: as for `Oc1ccc(C(O)CN2C[C@@H]3C[C@@](O)(CC4CCCCC4)C[C@@H]3C2)nc1` (mixture of isomers) [Example 214, rac-6-{2-[(3aR,5R,6aS)-5-(cyclohexylmethyl)-5-hydroxy-octahydrocyclopenta[c]pyrrol-2-yl]-1-hydroxyethyl}pyridin-3-ol], the figure is 2630 nM; as for `Oc1ccc(C(O)CN2C[C@@H]3C[C@@](O)(Cc4ccc(F)cc4)C[C@@H]3C2)cc1F` (mixture of isomers) [Example 171, rac-(3aR,5r,6aS)-2-(2-(3-fluoro-4-hydroxyphenyl)-2-hydroxyethyl)-5-(4-fluorobenzyl)octahydro-cyclopenta[c]pyrrol-5-ol], 22.1 nM.

`O=C(Nc1cccnc1)N1C[C@@H]2C[C@@](O)(c3ccc(F)cc3)C[C@@H]2C1` [Example 41]: the IC50 reads like this: under setting [2], above 10000 nM; under setting [1], at least 10000 nM. On to `N#Cc1cccc(NC(=O)N2C[C@@H]3C[C@@](O)(Cc4ccccc4)C[C@@H]3C2)c1` [Example 123, (3aR,5r,6aS)-5-benzyl-N-(3-cyanophenyl)-5-hydroxyhexahydrocyclo-penta[c]pyrrole-2(1H)-carboxamide], for which the half-inhibitory concentration (IC50) runs as follows: under setting [2], above 10000 nM; under setting [1], at least 10000 nM. The like results for `Cc1ccccc1[C@]1(O)C[C@H]2CN(CC(O)c3cccc(C(F)(F)F)c3)C[C@H]2C1` (mixture of isomers) [Example 72, rac-2-{2-hydroxy-2-[3-(trifluoromethyl)phenyl]ethyl}-5-(2-methylphenyl)-octahydrocyclopenta[c] pyrrol-5-ol] were, in that order, above 10000 nM and at least 10000 nM. For `Oc1cnc(C(O)CN2C[C@@H]3C[C@@](O)(Cc4ccccc4)C[C@@H]3C2)nc1` (mixture of isomers) [Example 203, rac-2-{2-[(3aR,5R,6aS)-5-benzyl-5-hydroxy-octahydrocyclopenta[c]pyrrol-2-yl]-1-hydroxyethyl}pyrimidin-5-ol] the same measures were 1000 to 10000 nM and 3400 nM. The molecule `Cc1cc(C)cc(C[C@]2(O)C[C@H]3CN(CC(O)c4ccc(O)cc4)C[C@H]3C2)c1` (mixture of isomers) [Example 213, rac-(3aR,5R,6aS)-5-[(3,5-dimethylphenyl)methyl]-2-[2-hydroxy-2-(4-hydroxyphenyl)ethyl]-octahydrocyclopenta[c] pyrrol-5-ol] registered a concentration for half-maximal inhibition (IC50) under setting [1] of 566 nM. Take `COc1cccc(NC(=O)N2C[C@@H]3C[C@@](O)(c4ccc(C(C)(C)C)cc4)C[C@@H]3C2)c1` [Example 51]: the concentration for half-maximal inhibition (IC50) runs as follows: under setting [2], above 10000 nM; under setting [1], at least 10000 nM. The like results for `OC(CN1C[C@@H]2C[C@@](O)(Cc3ccccc3)C[C@@H]2C1)c1cccc(C(F)(F)F)c1` (mixture of isomers) [Example 288, rac-(3aR,5r,6aS)-benzyl-2-(2-hydroxy-2-(3-(trifluoromethyl)phenyl)ethyl)octahydrocyclo-penta[c]pyrrol-5-ol] were, in that order, above 10000 nM and at least 10000 nM. For the molecule `OC(CN1C[C@@H]2C[C@@](O)(c3ccc(F)cc3)C[C@@H]2C1)c1cccc(C(F)(F)F)c1` (mixture of isomers) [Example 75, rac-5-(4-fluorophenyl)-2-{2-hydroxy-2-[3-(trifluoromethyl)phenyl]ethyl}-octahydrocyclopenta[c] pyrrol-5-ol], the half-maximal inhibitory concentration (IC50) runs as follows: under setting [2], above 10000 nM; under setting [1], at least 10000 nM.

`Cc1ccccc1[C@]1(O)C[C@H]2CN(C(C)C(=O)c3ccc(O)cc3)C[C@H]2C1` (mixture of isomers) [Example 94, rac-2-[5-hydroxy-5-(2-methylphenyl)-octahydrocyclopenta[c]pyrrol-2-yl]-1-(4-hydroxyphenyl)propan-1-one]: the 50% inhibitory concentration (IC50) under setting [2] is above 10000 nM and the 50% inhibitory concentration (IC50) under setting [1] is at least 10000 nM.

As to `OC(CN1C[C@@H]2C[C@@](O)(c3ccccc3)C[C@@H]2C1)c1ccccc1` (mixture of isomers) [Example 58, rac-2-(2-hydroxy-2-phenylethyl)-5-phenyloctahydrocyclo-penta[c]pyrrol-5-ol], the IC50 was above 10000 nM under setting [2] and at least 10000 nM under setting [1]. `Cc1ccccc1[C@]1(O)C[C@H]2CN(C(=O)Nc3cccc(C#N)c3)C[C@H]2C1` [Example 31, N-(3-cyanophenyl)-5-hydroxy-5-(2-methylphenyl)-octahydrocyclopenta[c] pyrrole-2-carboxamide]: the IC50 under setting [2] is above 10000 nM. For the molecule `Oc1ccc(C(O)CN2C[C@H]3CN(Cc4ccccc4)C[C@H]3C2)cc1` (mixture of isomers) [Example 327, rac-4-(2-(5-benzylhexahydropyrrolo [3,4-c]pyrrol-2(1H)-yl)-1-hydroxyethyl)phenol], the 50% inhibitory concentration (IC50) by setting is: under setting [2], 100 to 1000 nM; under setting [1], 139 nM. The like results for `CC(C(=O)c1ccc(O)cc1)N1C[C@@H]2C[C@@](O)(c3ccc(C(C)(C)C)cc3)C[C@@H]2C1` (mixture of isomers) [Example 93, rac-2-[5-(4-tert-butylphenyl)-5-hydroxy-octahydrocyclopenta[c]pyrrol-2-yl]-1-(4-hydroxyphenyl)propan-1-one] were, in that order, above 10000 nM and at least 10000 nM. For `CC(C(=O)c1ccc(O)cc1)N1C[C@H]2CC(Cc3ccccc3)C[C@H]2C1` (mixture of isomers) [Example 296, rac-2-((3aR,6aS)-5-benzylhexahydrocyclo-penta[c]pyrrol-2(1H)-yl)-1-(4-hydroxyphenyl)propan-1-one] the same measures were 100 to 1000 nM and 125 nM. As to `O=C(Nc1ccc(F)cc1)N1C[C@@H]2C[C@@](O)(c3ccc(F)cc3)C[C@@H]2C1` [Example 35, N,5-bis(4-fluorophenyl)-5-hydroxy-octahydrocyclopenta[c] pyrrole-2-carboxamide], the IC50 under setting [2] was above 10000 nM. `Oc1ccc(C(O)CN2C[C@@H]3C[C@@](O)(Cc4ccc(C(F)(F)F)cc4)C[C@@H]3C2)nc1` (mixture of isomers) [Example 217, rac-6-{2-[(3aR,5R,6aS)-5-hydroxy-5-{[4-(trifluoromethyl)phenyl]methyl}-octahydrocyclopenta[c]pyrrol-2-yl]-1-hydroxyethyl}pyridin-3-ol]: the IC50 under setting [1] turned out to be 36 nM. `CC(O)(CN1CC2CC(O)(Cc3ccccc3)CC2C1)c1ccc(O)cc1` (racemic) [Example 280, rac-(3aR,5R,6aS)-5-benzyl-2-[2-hydroxy-2-(4-hydroxyphenyl)propyl]-octahydrocyclopenta[c] pyrrol-5-ol]: the IC50 by setting is: under setting [2], below 100 nM; under setting [1], 43 nM. The like results for `OC(CN1C[C@@H]2C[C@@](O)(Cc3ccccc3)C[C@@H]2C1)c1cnc(OCc2ccccc2)cn1` (mixture of isomers) [Example 163, rac-(3aR,5r,6aS)-5-benzyl-2-(2-(5-(benzyloxy)pyrazin-2-yl)-2-hydroxyethyl)octahydro-cyclopenta[c]pyrrol-5-ol] were, in that order, above 10000 nM and at least 10000 nM. `Oc1ccc(C(O)CN2C[C@H]3CC(Cc4ccccc4)C[C@H]3C2)nc1` (mixture of isomers) [Example 298, rac-6-(2-{5-benzyl-octahydrocyclopenta[c]pyrrol-2-yl}-1-hydroxyethyl)pyridin-3-ol] displayed an IC50 under setting [1] of 22.4 nM.

As usually defined, the IC50 is the point on the concentration scale where inhibition reaches its midpoint.
